Reference: US20010039026A1, “Assay method” (priority 2000, published 2001)
Like-named read-outs stand apart in the source and are kept apart here.

Key:
CCR5-tropic strains = settings: cited from earlier work
[1] = system: CXCR4 dependent primary and lab-adapted HIV viruses; settings: cited from earlier work
CCR5 [2] = target: T1, CCR5 (Homo sapiens, UniProt P51681); experiment: Dissociation constant of the CCR5/gp120 interaction, applicant's work with recombinant proteins; format: binding
T1 construct: antagonist of CCR5 function in monocytes; endogenous in cells; host or cells: monocytes

CCR5 [3] = target: T1, CCR5; settings: described by others in model systems; read-out: dissociation constant (Kd) of the interaction of CCR5 with gp120; cited from earlier work
CCCKR5 = target: T2, CCCKR5 (Homo sapiens, UniProt P51681); settings: transfected CHO-K1 cells; cited from earlier work
T2 construct: expressed in transfected cells; host or cells: CHO-K1 (stably transfected)

[4] = system: primary, nonsyncytium-inducing (NSI) HIV-1 strains; settings: primary NSI HIV-1 strains; cited from earlier work
[5] = system: env-mediated cell-cell fusion; settings: cited from earlier work
primary HIV isolates = settings: cited from earlier work

Compound	agonist activity at CCCKR5 (CCCKR5)	inhibition of infection of CD4(+) cells at the virus entry stage [4]	block of env-mediated cell-cell fusion [5]	suppression of replication of primary HIV isolates (primary HIV isolates)	further results
Cc1ccc(-c2ccc3c(c2)C=C(C(=O)Nc2ccc(C[N+](C)(C)C4CCOCC4)cc2)CCC3)cc1.[Cl-] [TAK 779]					block of entry of CCR5-tropic strains (CCR5-tropic strains): blocks entry
c1cc(CN2CCCNCCNCCCNCC2)ccc1CN1CCCNCCNCCCNCC1 [AMD3100]					inhibition of infection of susceptible cultures [1]: inhibit infection
gp120: envelope protein of HIV that is required for viral entry into the target cells					Kd (CCR5 [2]): 0.1 to 1 µM; Kd (CCR5 [3]): ~0.001 µM
MIP-1-α: macrophage inflammatory protein, β-chemokine ligand of CCR5	most potent agonist	inhibit infection	block env-mediated cell-cell fusion	suppress replication	
SDF-1: chemokine shown to suppress replication of primary HIV isolates				suppress replication	
RANTES: protein which is regulated upon activation and is normal T-cell expressed and secreted	active at physiologic concentrations	inhibit infection	block env-mediated cell-cell fusion	suppress replication	
